Laboratory results as given in article PMC5951806, “Rapid labelling and covalent inhibition of intracellular native proteins using ligand-directed N-acyl-N-alkyl sulfonamide” (Nature Communications, 2018).

Legend:
Experiment in all cases: TMT LC-MSMS of 11-labelled proteins
Type in all cases: cell-based
[1] = molecular target: T1, Folate transporter 1 (SLC19A1) (Homo sapiens, UniProt P41440)
T1 sequence (P41440 1-591): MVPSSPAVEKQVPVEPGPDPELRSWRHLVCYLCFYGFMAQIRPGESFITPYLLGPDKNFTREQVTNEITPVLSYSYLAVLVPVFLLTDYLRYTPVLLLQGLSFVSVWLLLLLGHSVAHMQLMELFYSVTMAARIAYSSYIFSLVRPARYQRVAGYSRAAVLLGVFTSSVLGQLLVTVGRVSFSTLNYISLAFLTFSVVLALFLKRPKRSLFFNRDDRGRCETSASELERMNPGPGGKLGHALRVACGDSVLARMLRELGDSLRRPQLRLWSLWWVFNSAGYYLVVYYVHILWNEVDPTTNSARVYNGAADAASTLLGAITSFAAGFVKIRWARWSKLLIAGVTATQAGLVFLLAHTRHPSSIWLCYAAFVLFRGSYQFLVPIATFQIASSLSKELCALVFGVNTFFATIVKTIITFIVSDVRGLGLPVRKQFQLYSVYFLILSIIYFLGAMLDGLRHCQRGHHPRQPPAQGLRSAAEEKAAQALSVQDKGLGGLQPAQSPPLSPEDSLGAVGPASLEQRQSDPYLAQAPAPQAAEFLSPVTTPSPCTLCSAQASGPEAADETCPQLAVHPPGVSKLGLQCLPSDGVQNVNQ

[2] = molecular target: elongation factor Tu, mitochondrial (TUFM) (Homo sapiens, UniProt P49411)
[3] = molecular target: ATP synthase subunit beta, mitochondrial (ATP5B) (Homo sapiens, UniProt P06576)
[4] = sheet Merged, SKBR3 cells, 11 0.5 µM 3 h vs DMSO
[5] = sheet Merged, SKBR3 cells, 11 0.5 µM 3 h vs with PU-H71 10 µM

- Abundance Ratio: (11) / (11 with PU-H71) ([1]; Exp3, SLC19A1): 0.875
- Abundance Ratio: (11) / (DMSO) ([1]; Exp3, SLC19A1): 5.164
- Abundances (Grouped): 11 ([1]; Exp3, SLC19A1): 56.8
- Abundances (Grouped): 11 with PU-H71 ([1]; Exp3, SLC19A1): 64.9
- Abundance Ratio: (11) / (11 with PU-H71) ([1]; sheet Exp2, SLC19A1): 1.054
- Abundance Ratio: (11) / (DMSO) ([1]; sheet Exp2, SLC19A1): 3.79
- Abundances (Grouped): 11 ([1]; sheet Exp2, SLC19A1): 111.8
- Abundances (Grouped): 11 with PU-H71 ([1]; sheet Exp2, SLC19A1): 106.1
- Abundance Ratio: (11) / (DMSO) [1, 4]: 4.595
- Abundance Ratio: (11) / (11 with PU-H71) [1, 5]: 0.985
- Abundance Ratio: (11) / (11 with PU-H71) ([2]; sheet Exp2, TUFM): 1.006
- Abundance Ratio: (11) / (DMSO) ([2]; sheet Exp2, TUFM): 2.039
- Abundances (Grouped): 11 ([2]; sheet Exp2, TUFM): 67.3
- Abundances (Grouped): 11 with PU-H71 ([2]; sheet Exp2, TUFM, with PU-H71): 66.9
- Abundance Ratio: (11) / (DMSO) [2, 4]: 2.024
- Abundance Ratio: (11) / (11 with PU-H71) [2, 5]: 0.818
- Abundance Ratio: (11) / (11 with PU-H71) ([3]; sheet Exp2, ATP5B): 0.866
- Abundance Ratio: (11) / (DMSO) ([3]; sheet Exp2, ATP5B): 1.928
- Abundances (Grouped): 11 ([3]; sheet Exp2, ATP5B): 141.5
- Abundances (Grouped): 11 with PU-H71 ([3]; sheet Exp2, ATP5B, with PU-H71): 163.4
- Abundance Ratio: (11) / (DMSO) [3, 4]: 1.928
- Abundance Ratio: (11) / (11 with PU-H71) [3, 5]: 0.866
SMILES: CC(=O)Oc1ccc2c(c1)Oc1cc(OC(C)=O)ccc1C21OC(=O)c2cc(C(=O)NCCOCCOCCNC(=O)CCCC(=O)N(CC#N)S(=O)(=O)c3ccc(C(=O)NCCCn4c(Sc5cc6c(cc5I)OCO6)nc5c(N)ncnc54)cc3)ccc21 [compound 11]
